Reference: ChEMBL document CHEMBL2390858, “Design, synthesis and anti-tuberculosis activity of 1-adamantyl-3-heteroaryl ureas with improved in vitro pharmacokinetic properties” (Bioorg Med Chem, 2013)
≈ marks a conversion by molar mass, not a printed value.

What was measured:
physchem = details: system solution buffer, pH 7.4
in vitro = details: human, plasma
[1] = target: T1, Bifunctional epoxide hydrolase 2 (Homo sapiens, UniProt P34913)
T1 sequence (P34913 whole entry): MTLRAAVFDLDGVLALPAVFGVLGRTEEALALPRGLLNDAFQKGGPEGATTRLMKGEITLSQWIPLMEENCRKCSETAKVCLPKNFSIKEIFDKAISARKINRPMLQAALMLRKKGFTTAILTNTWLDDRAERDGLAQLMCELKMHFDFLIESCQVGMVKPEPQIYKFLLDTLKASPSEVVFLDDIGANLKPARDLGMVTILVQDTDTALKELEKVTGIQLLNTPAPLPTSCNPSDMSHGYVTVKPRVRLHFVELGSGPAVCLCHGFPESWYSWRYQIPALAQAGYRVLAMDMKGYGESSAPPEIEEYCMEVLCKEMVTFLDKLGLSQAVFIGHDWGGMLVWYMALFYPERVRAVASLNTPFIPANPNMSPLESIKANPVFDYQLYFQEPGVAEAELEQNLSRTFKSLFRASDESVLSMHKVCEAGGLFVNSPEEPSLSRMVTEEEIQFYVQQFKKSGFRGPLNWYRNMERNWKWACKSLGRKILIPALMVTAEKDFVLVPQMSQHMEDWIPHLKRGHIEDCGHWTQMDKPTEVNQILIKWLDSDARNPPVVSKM

Plasma = details: human, 4 h, 10 µM
[2] = buffer
Vero = assay: cells; details: Chlorocebus sabaeus, 72 h
Pseudomonas aeruginosa = assay: microbe, parasite or virus in culture
Proteus vulgaris = assay: microbe, parasite or virus in culture
Proteus mirabilis = assay: microbe, parasite or virus in culture
Klebsiella pneumoniae = assay: microbe, parasite or virus in culture
Escherichia coli = assay: microbe, parasite or virus in culture; details: K-12
Burkholderia cepacia = assay: microbe, parasite or virus in culture
Bacillus subtilis = assay: microbe, parasite or virus in culture
Acinetobacter = assay: microbe, parasite or virus in culture
Streptococcus pneumoniae = assay: microbe, parasite or virus in culture
Streptococcus pyogenes = assay: microbe, parasite or virus in culture
Staphylococcus aureus [3] = assay: microbe, parasite or virus in culture; details: NRS70
Staphylococcus aureus [4] = assay: microbe, parasite or virus in culture; details: ATCC 29213
Enterococcus faecalis = assay: microbe, parasite or virus in culture
Bacillus anthracis = assay: microbe, parasite or virus in culture; details: Sterne
[5] = system: Mycobacterium tuberculosis; assay: microbe, parasite or virus in culture; details: H37Rv, 168 h
[6] = Metabolic stability in CD-1 mouse liver microsomes assessed as compound remaining after 90 mins in presence of NADPH; assay type: ADME, Microsome; details: read-out: Stability

| Compound | solubility at 18 h (physchem) [µg/mL] | fraction unbound at 4 h, 10 µM (in vitro) | IC50 [1] [nM] | IC50 (Vero) [µg/mL] | MIC (Pseudomonas aeruginosa) [µg/mL] | MIC (Proteus vulgaris) [µg/mL] | MIC (Proteus mirabilis) [µg/mL] | MIC (Klebsiella pneumoniae) [µg/mL] | MIC (Escherichia coli) [µg/mL] | MIC (Burkholderia cepacia) [µg/mL] | MIC (Bacillus subtilis) [µg/mL] | MIC (Acinetobacter) [µg/mL] | MIC (Streptococcus pneumoniae) [µg/mL] | MIC (Streptococcus pyogenes) [µg/mL] | MIC (Staphylococcus aureus [3]) [µg/mL] | MIC (Staphylococcus aureus [4]) [µg/mL] | MIC (Enterococcus faecalis) [µg/mL] | MIC (Bacillus anthracis) [µg/mL] | MIC [5] [µg/mL] | remaining at […] [6] [%] | further results |
| --- | --- | --- | --- | --- | --- | --- | --- | --- | --- | --- | --- | --- | --- | --- | --- | --- | --- | --- | --- | --- | --- |
| O=C(Nc1ccc(F)c(F)c1F)NC12CC3CC(CC(C3)C1)C2 | < 0.1 | – | – | – | – | – | – | – | – | – | – | – | – | – | – | – | – | – | – | – | – |
| CC1C(NC(=O)Nc2ccc(F)c(F)c2F)CC2CC1C2(C)C (configuration not stated) | < 0.1 | 0.008 | – | – | – | – | – | – | – | – | – | – | – | – | – | – | – | – | – | – | – |
| N#Cc1ccc(NC(=O)NC2C3CC4CC(C3)CC2C4)cc1 (configuration not stated) | < 0.1 | 0.01 | – | – | – | – | – | – | – | – | – | – | – | – | – | – | – | – | – | – | – |
| Cc1ccc(NC(=O)NC2CCCCCC2)cc1Cl | < 0.1 | 0.003 | – | – | – | – | – | – | – | – | – | – | – | – | – | – | – | – | – | – | – |
| CC(C)c1nnc(NC(=O)NC23CC4CC(CC(C4)C2)C3)o1 | – | – | 557 | 11 (≈ 36.1 µM) | > 200 | > 200 | > 200 | > 200 | > 200 | > 200 | > 200 | > 200 | > 200 | > 200 | > 200 | > 200 | > 200 | > 200 | 1.56 (≈ 5.12 µM) | – | PPB (Plasma): 99.3%; solubility ([2]; 18 h, pH 7.4): 9.54 µg/mL (≈ 31.3 µM) |
| CC(C)(C)c1cc(NC(=O)NC2C3CC4CC(C3)CC2C4)no1 (configuration not stated) | – | – | 73 | 7 (≈ 22.1 µM) | > 200 | > 200 | > 200 | > 200 | > 200 | > 200 | > 200 | > 200 | > 200 | > 200 | 200 (≈ 630 µM) | > 200 | 6.25 (≈ 19.7 µM) | > 200 | 0.1 (≈ 0.315 µM) | > 30 | PPB (Plasma): 95.2%; solubility ([2]; 18 h, pH 7.4): 22.7 µg/mL (≈ 71.5 µM) |
| CC(C)c1nnc(NC(=O)NC2C3CC4CC(C3)CC2C4)o1 (configuration not stated) | – | – | 843 | 33 (≈ 108 µM) | > 200 | > 200 | > 200 | > 200 | > 200 | > 200 | 100 (≈ 329 µM) | > 200 | 100 (≈ 329 µM) | 200 (≈ 657 µM) | > 200 | > 200 | 100 (≈ 329 µM) | 100 (≈ 329 µM) | 1.56 (≈ 5.12 µM) | > 30 | PPB (Plasma): 98% |
| O=C(Nc1nnc(C2CCC2)o1)NC1C2CC3CC(C2)CC1C3 (configuration not stated) | – | – | 382 | 36 (≈ 114 µM) | > 200 | > 200 | > 200 | > 200 | > 200 | 50 (≈ 158 µM) | 50 (≈ 158 µM) | > 200 | 100 (≈ 316 µM) | 100 (≈ 316 µM) | > 200 | > 200 | > 200 | 25 (≈ 79 µM) | 0.78 (≈ 2.47 µM) | > 30 | – |
| CC(C)(C)c1cc(NC(=O)NC23CC4CC(CC(C4)C2)C3)no1 | – | – | 56 | 6 (≈ 18.9 µM) | > 200 | > 200 | > 200 | > 200 | 100 (≈ 315 µM) | – | > 200 | > 200 | > 200 | > 200 | 200 (≈ 630 µM) | 100 (≈ 315 µM) | 100 (≈ 315 µM) | > 200 | 1.56 (≈ 4.91 µM) | > 30 | – |
| COC(=O)c1ccc(NC(=O)NC23CC4CC(CC(C4)C2)C3)cc1O | – | 0.031 | – | – | – | – | – | – | – | – | – | – | – | – | – | – | – | – | – | – | solubility ([2]; pH 7.4, 18 h): 0.51 µg/mL (≈ 1.48 µM) |
